# The source made the active and inactive calls.
# Experiments:
# Escherichia coli = test: microbe, parasite or virus in culture
# [1] = target: Alkaline phosphatase, placental type (Homo sapiens, UniProt P05187); test: PLAP enzyme inhibitors, confirmation, biochemical, luminescence (AID 1512); format: functional
# [2] = target: T1, Alkaline phosphatase, tissue-nonspecific isozyme (Homo sapiens, UniProt P05186); test: human TNAP enzyme inhibitors, SAR follow-up, biochemical, luminescent, dose response (AID 1056)
# T1 sequence (P05186 whole entry): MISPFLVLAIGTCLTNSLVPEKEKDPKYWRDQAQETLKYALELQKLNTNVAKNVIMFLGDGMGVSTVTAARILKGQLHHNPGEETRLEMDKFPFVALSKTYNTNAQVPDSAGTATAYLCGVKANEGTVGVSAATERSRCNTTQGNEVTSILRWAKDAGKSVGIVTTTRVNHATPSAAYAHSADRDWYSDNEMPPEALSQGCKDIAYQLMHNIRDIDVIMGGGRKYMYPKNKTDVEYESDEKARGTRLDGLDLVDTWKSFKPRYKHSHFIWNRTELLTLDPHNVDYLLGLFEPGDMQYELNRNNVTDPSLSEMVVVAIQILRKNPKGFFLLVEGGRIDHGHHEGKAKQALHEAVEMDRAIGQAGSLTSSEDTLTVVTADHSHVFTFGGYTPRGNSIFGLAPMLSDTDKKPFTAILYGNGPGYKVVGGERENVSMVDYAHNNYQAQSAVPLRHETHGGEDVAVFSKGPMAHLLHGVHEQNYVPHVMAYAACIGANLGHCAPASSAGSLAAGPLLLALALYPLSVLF
# [3] = target: T2, Short transient receptor potential channel 4 (Mus musculus, UniProt Q9QUQ5); test: mouse TRPC4 channel inhibitors, dose response, cell-based, HEK293 TRPC4/mu-opioid, Fluo-4 calcium (AID 434942); format: functional;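 also: potency of inhibitors blocking the TRPC4 calcium response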
# T2 sequence (Q9QUQ5 whole entry): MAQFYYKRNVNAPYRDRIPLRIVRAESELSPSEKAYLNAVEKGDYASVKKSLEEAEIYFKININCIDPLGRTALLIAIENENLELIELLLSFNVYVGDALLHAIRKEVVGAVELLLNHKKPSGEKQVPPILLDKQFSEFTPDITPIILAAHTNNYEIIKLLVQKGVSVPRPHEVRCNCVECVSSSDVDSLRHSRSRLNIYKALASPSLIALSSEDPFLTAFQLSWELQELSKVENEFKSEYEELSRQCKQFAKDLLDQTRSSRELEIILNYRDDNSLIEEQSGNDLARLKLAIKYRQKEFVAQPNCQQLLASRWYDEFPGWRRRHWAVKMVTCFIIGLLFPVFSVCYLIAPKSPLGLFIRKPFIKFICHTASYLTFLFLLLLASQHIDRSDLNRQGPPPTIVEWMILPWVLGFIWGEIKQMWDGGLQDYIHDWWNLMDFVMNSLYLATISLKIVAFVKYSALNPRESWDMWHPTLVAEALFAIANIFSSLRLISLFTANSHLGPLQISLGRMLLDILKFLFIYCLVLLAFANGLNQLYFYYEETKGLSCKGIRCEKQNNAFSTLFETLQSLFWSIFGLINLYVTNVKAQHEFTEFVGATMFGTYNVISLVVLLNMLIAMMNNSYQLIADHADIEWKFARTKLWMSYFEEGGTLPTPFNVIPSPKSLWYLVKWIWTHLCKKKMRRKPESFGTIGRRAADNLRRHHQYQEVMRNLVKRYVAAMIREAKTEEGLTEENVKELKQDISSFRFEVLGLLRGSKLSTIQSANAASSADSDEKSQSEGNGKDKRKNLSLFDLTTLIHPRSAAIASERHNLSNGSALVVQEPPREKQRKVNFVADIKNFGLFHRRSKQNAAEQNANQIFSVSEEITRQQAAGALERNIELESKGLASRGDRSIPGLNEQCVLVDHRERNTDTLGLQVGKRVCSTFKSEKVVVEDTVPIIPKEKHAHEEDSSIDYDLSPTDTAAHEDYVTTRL
# HEK293 [4] = test: NOD1 signaling inhibitors, primary screen, cell-based, luminescence, uHTS (AID 1578); format: functional; conditions: Homo sapiens
# HEK293 [5] = test: cells; format: functional, cell-based; conditions: Homo sapiens
# HEK293 [6] = test: cells; format: functional, cell-based; conditions: Homo sapiens; remark: listed apart in the source
# [7] = target: Nucleotide-binding oligomerization domain-containing protein 2 (Homo sapiens, UniProt Q9HC29); test: NOD2 signaling inhibitors, cell-based, luminescence, uHTS, HEK293 (AID 1566); format: functional
# HEK293 [8] = test: NOD2 signaling inhibitors in MDP-stimulated cells, cell-based, uHTS, luminescence (AID 2001); format: functional; conditions: Homo sapiens
# HEK293 [9] = test: cells; format: functional, cell-based; conditions: Homo sapiens; remark: listed apart in the source
# [10] = cytotoxicity in HEK-293T cells, dose response, cytotoxicity control for TCR NF-kB inhibitor project, luminescence, T-cell screen hits (AID 489026); format: functional, cell-based;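 also: cells exposed to compound about 14 hours before the viability readout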
# INS1 = test: beta cell apoptosis inhibitors, cytokine rescue, dose response, luminescence, retest (AID 449756); format: functional, cell-based; conditions: Rattus norvegicus;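 also: cell death triggered by IL-1 beta plus TNF-alpha plus IFN-gamma mixture; protective hits raise ATP signal compared with cytokine alone wells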
# [11] = Shn3 3'UTR reporter inhibitors, dose response, cell-based, Clone20 osteoblasts, firefly luciferase, cherry-picked (AID 624132); format: functional;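 also: firefly luciferase luminescence from reporter carrying the Shn3 3'UTR in osteoblasts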
# [12] = HepG2 cell cytotoxicity, dose response, cytotoxicity control for Shn3 inhibitor project, CellTiter-Glo, cherry-picked (AID 624134); format: functional, cell-based
# [13] = target: Voltage-dependent T-type calcium channel subunit alpha-1H (Homo sapiens, UniProt O95180); format: functional;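 also: channel activity triggered by adding a high calcium stimulation buffer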
# Aminopeptidase N = target: T3, Aminopeptidase N (Plasmodium falciparum FcB1/Columbia, UniProt O96935); test: P. falciparum M1AAP inhibitors, biochemical, fluorogenic H-Leu-NHMec substrate, 1536-well (AID 1445); parameters: species or system Plasmodium falciparum 3D7, 3D7
# T3 sequence (O96935 whole entry): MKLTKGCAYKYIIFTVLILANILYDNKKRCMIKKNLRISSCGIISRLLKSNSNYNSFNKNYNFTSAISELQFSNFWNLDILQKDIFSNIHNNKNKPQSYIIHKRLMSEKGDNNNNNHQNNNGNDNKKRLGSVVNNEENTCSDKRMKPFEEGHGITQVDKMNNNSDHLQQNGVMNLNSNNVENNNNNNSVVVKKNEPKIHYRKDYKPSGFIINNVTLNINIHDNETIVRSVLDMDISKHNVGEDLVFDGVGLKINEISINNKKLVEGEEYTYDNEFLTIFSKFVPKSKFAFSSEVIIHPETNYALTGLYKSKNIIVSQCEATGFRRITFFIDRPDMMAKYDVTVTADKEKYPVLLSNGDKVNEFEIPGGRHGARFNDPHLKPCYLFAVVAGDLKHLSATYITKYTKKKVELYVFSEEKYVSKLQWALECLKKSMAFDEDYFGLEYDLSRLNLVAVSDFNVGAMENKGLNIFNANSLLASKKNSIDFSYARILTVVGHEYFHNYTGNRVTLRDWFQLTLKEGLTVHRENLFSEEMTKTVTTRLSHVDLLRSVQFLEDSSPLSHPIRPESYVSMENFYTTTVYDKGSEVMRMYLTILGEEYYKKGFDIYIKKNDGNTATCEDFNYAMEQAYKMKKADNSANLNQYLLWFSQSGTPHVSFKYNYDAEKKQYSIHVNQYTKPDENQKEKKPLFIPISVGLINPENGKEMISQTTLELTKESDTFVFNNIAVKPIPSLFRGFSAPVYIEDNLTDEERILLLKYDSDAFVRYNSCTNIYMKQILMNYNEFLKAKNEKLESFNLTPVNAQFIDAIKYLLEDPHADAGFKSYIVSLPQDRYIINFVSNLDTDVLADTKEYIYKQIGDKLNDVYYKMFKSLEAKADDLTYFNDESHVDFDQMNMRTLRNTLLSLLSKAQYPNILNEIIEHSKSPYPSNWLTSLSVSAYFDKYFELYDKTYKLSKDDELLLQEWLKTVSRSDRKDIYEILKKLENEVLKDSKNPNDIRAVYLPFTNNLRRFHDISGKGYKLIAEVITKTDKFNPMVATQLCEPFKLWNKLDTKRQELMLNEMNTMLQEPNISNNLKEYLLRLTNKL
# Beta-galactosidase = Beta-galactosidase (Escherichia coli, UniProt Q8VNN2); test: PubChem AID 485352; format: functional
# [14] = target: T4, Type-1 angiotensin II receptor (Homo sapiens, UniProt P30556); test: AT1 receptor antagonists, dose response, selectivity assay for APJ receptor antagonist project, cell-based, uHTS hits (AID 463214); format: functional;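 also: antagonist potency against angiotensin II stimulated AT1 response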
# T4 sequence (P30556 whole entry): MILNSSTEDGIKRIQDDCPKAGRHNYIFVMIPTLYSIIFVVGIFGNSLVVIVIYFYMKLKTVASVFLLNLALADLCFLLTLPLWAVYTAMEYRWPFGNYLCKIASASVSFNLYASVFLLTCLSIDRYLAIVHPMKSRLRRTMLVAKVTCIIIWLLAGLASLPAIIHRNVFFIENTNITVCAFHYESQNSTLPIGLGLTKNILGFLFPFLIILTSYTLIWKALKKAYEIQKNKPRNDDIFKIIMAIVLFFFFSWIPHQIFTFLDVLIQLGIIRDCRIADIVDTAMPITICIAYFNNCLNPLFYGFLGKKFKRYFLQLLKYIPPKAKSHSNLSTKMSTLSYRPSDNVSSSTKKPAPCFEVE
# [15] = target: T5, Polyadenylate-binding protein 1 (Homo sapiens, UniProt P11940); test: PABP1 MLLE–PAM2 interaction inhibitors, dose response, miRNA deadenylation inhibitor project, biochemical, fluorescence polarization, Cy5-PAM2 peptide, secondary (AID 602260); format: functional; conditions: read-out: IC50_Mean
# [16] = target: T5, Polyadenylate-binding protein 1; test: PABP1 MLLE–PAM2 binding inhibitor potency, dose response, biochemical, fluorescence polarization, FITC-PAM2 peptide (AID 602259); format: functional; conditions: read-out: IC50_Mean
# Sequence of Voltage-dependent T-type calcium channel subunit alpha-1H (O95180 whole entry): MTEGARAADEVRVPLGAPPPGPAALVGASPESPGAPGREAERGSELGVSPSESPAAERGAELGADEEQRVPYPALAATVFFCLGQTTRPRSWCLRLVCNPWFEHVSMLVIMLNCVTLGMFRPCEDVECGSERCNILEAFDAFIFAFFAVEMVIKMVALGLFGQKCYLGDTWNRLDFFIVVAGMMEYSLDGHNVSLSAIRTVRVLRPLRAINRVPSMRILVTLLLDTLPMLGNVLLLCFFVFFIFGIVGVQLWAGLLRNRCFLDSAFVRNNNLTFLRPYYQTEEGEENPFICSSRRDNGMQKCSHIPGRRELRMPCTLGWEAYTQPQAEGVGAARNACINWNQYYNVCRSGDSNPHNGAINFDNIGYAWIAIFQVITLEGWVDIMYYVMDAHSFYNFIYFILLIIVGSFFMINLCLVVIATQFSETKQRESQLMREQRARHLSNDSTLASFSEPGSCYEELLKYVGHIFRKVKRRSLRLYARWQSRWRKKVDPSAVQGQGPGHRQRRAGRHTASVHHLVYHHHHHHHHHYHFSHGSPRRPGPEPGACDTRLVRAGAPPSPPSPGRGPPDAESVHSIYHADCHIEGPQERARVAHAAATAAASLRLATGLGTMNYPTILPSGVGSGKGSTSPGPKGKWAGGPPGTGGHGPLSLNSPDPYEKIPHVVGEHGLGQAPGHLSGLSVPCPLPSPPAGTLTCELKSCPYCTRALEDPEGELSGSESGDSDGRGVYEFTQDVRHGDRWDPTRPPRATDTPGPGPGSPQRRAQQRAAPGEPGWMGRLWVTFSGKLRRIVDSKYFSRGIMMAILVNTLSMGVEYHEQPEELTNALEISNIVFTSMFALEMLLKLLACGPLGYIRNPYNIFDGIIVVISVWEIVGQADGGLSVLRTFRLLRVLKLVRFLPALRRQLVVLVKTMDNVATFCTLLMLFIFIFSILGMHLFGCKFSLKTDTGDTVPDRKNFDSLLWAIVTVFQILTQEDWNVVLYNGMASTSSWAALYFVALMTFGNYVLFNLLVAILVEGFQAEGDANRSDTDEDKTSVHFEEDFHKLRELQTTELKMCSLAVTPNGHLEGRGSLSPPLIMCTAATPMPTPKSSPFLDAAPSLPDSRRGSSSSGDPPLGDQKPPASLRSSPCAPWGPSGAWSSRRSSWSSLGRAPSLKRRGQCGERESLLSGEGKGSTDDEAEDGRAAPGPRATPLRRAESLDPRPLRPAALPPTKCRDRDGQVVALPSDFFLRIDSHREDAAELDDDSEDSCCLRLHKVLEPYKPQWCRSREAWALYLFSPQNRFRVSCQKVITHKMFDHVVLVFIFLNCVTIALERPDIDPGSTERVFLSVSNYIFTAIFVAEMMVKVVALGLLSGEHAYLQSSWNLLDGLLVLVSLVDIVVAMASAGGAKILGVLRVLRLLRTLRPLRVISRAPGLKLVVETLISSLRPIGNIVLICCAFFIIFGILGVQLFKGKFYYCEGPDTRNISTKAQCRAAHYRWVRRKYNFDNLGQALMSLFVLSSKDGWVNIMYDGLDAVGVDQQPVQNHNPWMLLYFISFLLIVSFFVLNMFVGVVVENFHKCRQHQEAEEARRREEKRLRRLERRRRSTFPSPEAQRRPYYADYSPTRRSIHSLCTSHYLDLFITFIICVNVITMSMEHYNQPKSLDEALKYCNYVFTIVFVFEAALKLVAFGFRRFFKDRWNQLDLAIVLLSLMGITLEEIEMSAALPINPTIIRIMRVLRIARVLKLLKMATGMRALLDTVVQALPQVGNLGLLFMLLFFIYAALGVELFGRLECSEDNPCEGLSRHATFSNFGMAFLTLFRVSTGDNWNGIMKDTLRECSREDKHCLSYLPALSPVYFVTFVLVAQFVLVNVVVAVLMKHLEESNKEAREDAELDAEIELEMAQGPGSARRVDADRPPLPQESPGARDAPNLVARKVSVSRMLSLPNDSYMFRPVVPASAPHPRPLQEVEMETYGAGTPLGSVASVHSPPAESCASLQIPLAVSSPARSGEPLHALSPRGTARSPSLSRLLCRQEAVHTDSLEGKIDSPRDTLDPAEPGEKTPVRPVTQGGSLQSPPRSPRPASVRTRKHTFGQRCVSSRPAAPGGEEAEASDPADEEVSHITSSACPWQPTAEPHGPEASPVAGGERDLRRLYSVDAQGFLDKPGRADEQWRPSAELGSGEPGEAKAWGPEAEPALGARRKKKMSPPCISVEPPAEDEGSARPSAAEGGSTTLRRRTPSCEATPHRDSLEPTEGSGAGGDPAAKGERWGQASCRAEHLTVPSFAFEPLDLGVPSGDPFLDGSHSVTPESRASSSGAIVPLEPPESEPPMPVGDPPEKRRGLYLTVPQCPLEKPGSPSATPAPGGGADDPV
# T5 sequence (P11940 whole entry): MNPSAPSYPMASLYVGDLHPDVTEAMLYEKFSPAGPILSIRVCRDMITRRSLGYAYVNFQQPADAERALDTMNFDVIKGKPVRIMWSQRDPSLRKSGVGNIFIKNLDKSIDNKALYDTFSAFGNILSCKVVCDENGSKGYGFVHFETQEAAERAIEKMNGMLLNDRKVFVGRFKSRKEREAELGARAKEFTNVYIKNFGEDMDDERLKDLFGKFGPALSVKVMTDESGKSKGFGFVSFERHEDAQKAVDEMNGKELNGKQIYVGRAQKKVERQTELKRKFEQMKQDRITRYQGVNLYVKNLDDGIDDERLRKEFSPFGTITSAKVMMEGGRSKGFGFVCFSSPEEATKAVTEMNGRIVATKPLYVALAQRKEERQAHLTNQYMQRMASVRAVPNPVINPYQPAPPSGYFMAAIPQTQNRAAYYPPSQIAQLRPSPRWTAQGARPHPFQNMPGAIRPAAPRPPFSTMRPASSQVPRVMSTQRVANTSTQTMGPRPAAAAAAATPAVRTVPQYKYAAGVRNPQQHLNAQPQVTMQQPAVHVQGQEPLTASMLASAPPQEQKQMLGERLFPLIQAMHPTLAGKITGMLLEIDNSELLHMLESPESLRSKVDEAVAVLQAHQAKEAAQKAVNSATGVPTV
# Sequence of Beta-galactosidase (Q8VNN2 whole entry): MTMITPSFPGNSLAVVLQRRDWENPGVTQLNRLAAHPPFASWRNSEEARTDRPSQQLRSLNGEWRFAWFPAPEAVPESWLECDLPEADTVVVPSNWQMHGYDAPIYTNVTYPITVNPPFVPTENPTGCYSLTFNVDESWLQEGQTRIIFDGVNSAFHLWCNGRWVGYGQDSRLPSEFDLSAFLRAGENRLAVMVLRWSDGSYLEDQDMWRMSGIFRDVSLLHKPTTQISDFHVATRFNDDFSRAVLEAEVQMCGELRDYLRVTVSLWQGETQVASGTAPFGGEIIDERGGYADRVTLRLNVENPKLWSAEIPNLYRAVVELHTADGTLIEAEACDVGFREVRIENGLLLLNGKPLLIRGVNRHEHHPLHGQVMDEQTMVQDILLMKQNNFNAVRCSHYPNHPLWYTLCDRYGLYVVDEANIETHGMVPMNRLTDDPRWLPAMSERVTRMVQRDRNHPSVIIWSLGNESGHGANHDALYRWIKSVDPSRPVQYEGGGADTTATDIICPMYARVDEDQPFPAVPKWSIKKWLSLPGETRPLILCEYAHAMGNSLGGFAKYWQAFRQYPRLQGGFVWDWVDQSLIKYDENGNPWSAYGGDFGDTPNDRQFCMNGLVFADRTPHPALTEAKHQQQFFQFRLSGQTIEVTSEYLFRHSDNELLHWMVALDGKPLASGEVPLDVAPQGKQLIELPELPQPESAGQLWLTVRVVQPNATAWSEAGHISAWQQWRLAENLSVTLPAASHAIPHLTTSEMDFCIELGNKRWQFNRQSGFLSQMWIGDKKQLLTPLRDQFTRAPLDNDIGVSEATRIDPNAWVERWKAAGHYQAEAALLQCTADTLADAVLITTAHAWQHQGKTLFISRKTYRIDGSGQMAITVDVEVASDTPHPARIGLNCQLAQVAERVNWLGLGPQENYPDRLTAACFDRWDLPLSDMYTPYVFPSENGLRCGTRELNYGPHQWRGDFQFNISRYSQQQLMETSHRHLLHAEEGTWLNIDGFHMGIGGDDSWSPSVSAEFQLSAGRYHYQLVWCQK
# Sequence of Alkaline phosphatase, placental type (P05187 whole entry): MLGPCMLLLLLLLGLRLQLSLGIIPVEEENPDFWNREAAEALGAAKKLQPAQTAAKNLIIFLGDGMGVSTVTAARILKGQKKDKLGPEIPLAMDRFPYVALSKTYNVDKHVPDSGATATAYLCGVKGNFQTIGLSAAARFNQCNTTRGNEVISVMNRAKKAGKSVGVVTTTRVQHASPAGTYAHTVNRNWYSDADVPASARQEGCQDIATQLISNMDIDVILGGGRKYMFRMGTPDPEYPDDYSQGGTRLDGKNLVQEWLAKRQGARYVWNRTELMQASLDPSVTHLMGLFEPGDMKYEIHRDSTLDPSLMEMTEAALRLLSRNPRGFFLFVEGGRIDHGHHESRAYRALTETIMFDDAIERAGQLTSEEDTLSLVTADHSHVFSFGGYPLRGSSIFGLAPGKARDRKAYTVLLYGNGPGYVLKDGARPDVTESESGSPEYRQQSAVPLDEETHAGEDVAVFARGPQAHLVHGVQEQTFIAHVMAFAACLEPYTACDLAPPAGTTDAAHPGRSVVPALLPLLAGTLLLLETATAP
compound,measurement,setting,value
COCCN(C(S)=Nc1c(C)cc(C)cc1C)C(C)c1cccnc1 (centres undefined),AC50,Escherichia coli,57.7 µM (active)
O=C(CSc1nc2ccccc2o1)c1ccc(O)c(O)c1,IC50,[1],3.06 µM (active)
same,IC50,[2],4.15 µM (active)
CN1CCN(c2nc3c(c(=O)n(C)c(=O)n3C)n2CC(=O)C23CC4CC(CC(C4)C2)C3)CC1,EC50,[3],2.11 µM (active)
COc1ccc(NS(=O)(=O)c2ccc(-c3cnc(C4CC4)o3)cc2)cc1OC,EC50,HEK293 [4],2.04 µM (active)
same,IC50,HEK293 [5],6.05 µM (active)
same,IC50,HEK293 [6],18.4 µM (active)
same,EC50,[7],14.4 µM (active)
same,IC50,HEK293 [8],6.25 µM (active)
same,IC50,HEK293 [9],> 20 µM (inactive)
same,IC50,[10],> 80 µM (inactive)
same,AC50,INS1,3.52 µM (active)
same,AC50,[11],1.33 µM (active)
same,AC50,[12],2.32 µM (active)
COc1ccc(S(=O)(=O)N2CCN(c3ccc(C)cc3C)CC2)cc1OC,EC50,[13],9.63 µM (active)
CN1CCN(Cc2nc3ccccc3c(=O)n2Cc2nc(-c3cccc([N+](=O)[O-])c3)cs2)CC1,IC50,Aminopeptidase N,79.7 µM (active)
CC(C)(C)n1nnnc1CN(Cc1ccc(F)cc1)Cc1ccco1,EC50,[13],6.27 µM (active)
O=C(CN1C(=O)C2C3CCC(C3)C2C1=O)OCC(=O)c1cccc([N+](=O)[O-])c1 (centres undefined),EC50,Beta-galactosidase,> 40 µM (inactive)
same,IC50,[14],26.3 µM (not active)
O=C(COC(=O)CCc1ccc(S(=O)(=O)N2CCCCC2)cc1)Nc1ccc2c(c1)OCO2,EC50,[13],26.4 µM (active)
Cc1cc2cc(CNC(=O)c3ccc(Br)o3)ccc2[nH]1,EC50,[13],10.1 µM (active)
same,IC50,[15],45.1 µM (inactive)
same,IC50,[16],49.6 µM (inactive)
O=C(CCCSc1nc2ccccc2[nH]1)NCc1ccccc1Cl,EC50,[3],3.76 µM (active)

# Source: ChEMBL document CHEMBL1201862, “PubChem BioAssay data set” (2004)
